According to PubChem BioAssay AID1919017 (Molecular Pharmacology Branch, DTP, NCI, 2023):
Values joined by “and” are separate entries in the source; they are usually repeats but may differ in a detail not shown here. Identical values can stand only once.

System: SW1271 complex spheroids with HUVEC/MSC, growth, % test/control
Assay: Anticancer human tumor SW1271 cell line growth inhibition [AhR];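 also: spheroids exposed to agents for 7 days before readout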
Conditions: for viability, T/C: stronger effect = lower value
Summary of the method: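 Complex tumor spheroids co-cultured with HUVEC and human MSC stroma; AhR antagonists tested in combination with standard-of-care and investigational agents. Top concentration at or near clinical Cmax (else 10 microM), half-log dilutions; growth expressed as percent test/control.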

[1] = curve of first compound, second compound 0.1 µM
[2] = curve of first compound, second compound 0.316 µM
[3] = curve of first compound, second compound 1 µM
[4] = curve of first compound, second compound 3.16 µM
[5] = curve of first compound, second compound 10 µM
[6] = second compound 0.1 µM, first compound 0.0316 µM
[7] = second compound 0.1 µM, first compound 0.1 µM
[8] = second compound 0.316 µM, first compound 0.0316 µM
[9] = second compound 0.316 µM, first compound 0.1 µM
[10] = second compound 1 µM, first compound 0.0316 µM
[11] = second compound 1 µM, first compound 0.1 µM
[12] = second compound 3.16 µM, first compound 0.0316 µM
[13] = second compound 3.16 µM, first compound 0.1 µM
[14] = second compound 10 µM, first compound 0.0316 µM
[15] = second compound 10 µM, first compound 0.1 µM

COc1ccc([C@@H](O)c2cc(-c3ncnc4cc(N5CCOCC5)ccc34)c(F)cc2Cl)nn1
viability, T/C (compound 0.0316 µM): 80.5% and 93.2% and 107%
viability, T/C (compound 0.1 µM): 96.4% and 73% and 85.2%
viability, T/C (compound 0.316 µM): 76.1% and 70.2% and 81%
viability, T/C (compound 1 µM): 62.3% and 61.5% and 59.7%
viability, T/C (compound 3.16 µM): 45.4% and 57% and 39.5%
viability, T/C (compound 10 µM): 25.2% and 27.9% and 28.6%
IC50 (curve of compound): 2180 nM and 2740 nM and 1890 nM

Cn1ncnc1C1c2n[nH]c(=O)c3cc(F)cc(c23)NC1c1ccc(F)cc1 (stereo unspecified)
viability, T/C (compound 0.000316 µM): 114% and 102% and 95.2%
viability, T/C (compound 0.001 µM): 97.2% and 109% and 100%
viability, T/C (compound 0.00316 µM): 101% and 95.9% and 94%
viability, T/C (compound 0.01 µM): 106% and 105% (2×)
viability, T/C (compound 0.0316 µM): 89.5% and 112% and 96.6%
viability, T/C (compound 0.1 µM): 88.7% and 93.8% and 83.6%
IC50 (curve of compound): > 100 nM

O=C(c1cc(Cc2n[nH]c(=O)c3ccccc23)ccc1F)N1CCN(C(=O)C2CC2)CC1 + Cc1cncc(-c2nc(NCCc3c[nH]c4ccccc34)c3ncn(C(C)C)c3n2)c1
IC50 [1]: > 10000 nM
IC50 [2]: > 10000 nM
IC50 [3]: > 10000 nM
IC50 [4]: > 10000 nM
IC50 [5]: < 31.6 nM
viability, T/C [6]: 74.1%
viability, T/C [7]: 75.8%
viability, T/C (second compound 0.1 µM, first compound 0.316 µM): 83.6%
viability, T/C (second compound 0.1 µM, first compound 1 µM): 75.6%
viability, T/C (second compound 0.1 µM, first compound 3.16 µM): 102%
viability, T/C (second compound 0.1 µM, first compound 10 µM): 100%
viability, T/C [8]: 84.9%
viability, T/C [9]: 94.2%
viability, T/C (second compound 0.316 µM, first compound 0.316 µM): 95.5%
viability, T/C (second compound 0.316 µM, first compound 1 µM): 83.7%
viability, T/C (second compound 0.316 µM, first compound 3.16 µM): 90.2%
viability, T/C (second compound 0.316 µM, first compound 10 µM): 91.4%
viability, T/C [10]: 84.9%
viability, T/C [11]: 91.2%
viability, T/C (second compound 1 µM, first compound 0.316 µM): 79.3%
viability, T/C (second compound 1 µM, first compound 1 µM): 80.2%
viability, T/C (second compound 1 µM, first compound 3.16 µM): 81.7%
viability, T/C (second compound 1 µM, first compound 10 µM): 75.8%
viability, T/C [12]: 90.7%
viability, T/C [13]: 78.7%
viability, T/C (second compound 3.16 µM, first compound 0.316 µM): 96.6%
viability, T/C (second compound 3.16 µM, first compound 1 µM): 75.6%
viability, T/C (second compound 3.16 µM, first compound 3.16 µM): 62.9%
viability, T/C (second compound 3.16 µM, first compound 10 µM): 80.1%
viability, T/C [14]: 50.1%
viability, T/C [15]: 46.4%
viability, T/C (second compound 10 µM, first compound 0.316 µM): 46.4%
viability, T/C (second compound 10 µM, first compound 1 µM): 33.3%
viability, T/C (second compound 10 µM, first compound 3.16 µM): 44.9%
viability, T/C (second compound 10 µM, first compound 10 µM): 34.7%

CC[C@@]1(O)C(=O)OCc2c1cc1n(c2=O)Cc2cc3c(CN(C)C)c(O)ccc3nc2-1 + CC(CO)NC(=O)c1cc(-c2ccc(Cl)cc2)nn(-c2cnn(C)c2)c1=O
IC50 [1]: > 100 nM
IC50 [2]: > 100 nM
IC50 [3]: > 100 nM
IC50 [4]: > 100 nM
IC50 [5]: > 100 nM
viability, T/C (second compound 0.1 µM, first compound 0.000316 µM): 93.6%
viability, T/C (second compound 0.1 µM, first compound 0.001 µM): 91.3%
viability, T/C (second compound 0.1 µM, first compound 0.00316 µM): 75.2%
viability, T/C (second compound 0.1 µM, first compound 0.01 µM): 81.6%
viability, T/C [6]: 65.8%
viability, T/C [7]: 58%
viability, T/C (second compound 0.316 µM, first compound 0.000316 µM): 92.9%
viability, T/C (second compound 0.316 µM, first compound 0.001 µM): 70.6%
viability, T/C (second compound 0.316 µM, first compound 0.00316 µM): 91.1%
viability, T/C (second compound 0.316 µM, first compound 0.01 µM): 87.4%
viability, T/C [8]: 68.2%
viability, T/C [9]: 50.2%
viability, T/C (second compound 1 µM, first compound 0.000316 µM): 81%
viability, T/C (second compound 1 µM, first compound 0.001 µM): 73.6%
viability, T/C (second compound 1 µM, first compound 0.00316 µM): 84.4%
viability, T/C (second compound 1 µM, first compound 0.01 µM): 87%
viability, T/C [10]: 57.2%
viability, T/C [11]: 62.8%
viability, T/C (second compound 3.16 µM, first compound 0.000316 µM): 77.9%
viability, T/C (second compound 3.16 µM, first compound 0.001 µM): 85.2%
viability, T/C (second compound 3.16 µM, first compound 0.00316 µM): 69.8%
viability, T/C (second compound 3.16 µM, first compound 0.01 µM): 61.6%
viability, T/C [12]: 61.8%
viability, T/C [13]: 53.5%
viability, T/C (second compound 10 µM, first compound 0.000316 µM): 75.8%
viability, T/C (second compound 10 µM, first compound 0.001 µM): 73.8%
viability, T/C (second compound 10 µM, first compound 0.00316 µM): 63.5%
viability, T/C (second compound 10 µM, first compound 0.01 µM): 69.3%
viability, T/C [14]: 60.2%
viability, T/C [15]: 51.9%

CC1COCCN1c1cc(-c2ccnn2C)c2ccnc(-c3ccn[nH]3)c2n1 (stereo unspecified)
viability, T/C (compound 0.00316 µM): 95.8% and 99.2% and 91%
viability, T/C (compound 0.01 µM): 90.6% and 102% and 103%
viability, T/C (compound 0.0316 µM): 76.6% and 71.1% and 85.7%
viability, T/C (compound 0.1 µM): 58.4% and 65.3% and 70.1%
viability, T/C (compound 0.316 µM): 51.8% and 61.9% and 60.3%
viability, T/C (compound 1 µM): 43.8% and 46.2% and 45.5%
IC50 (curve of compound): 294 nM and > 1000 nM and 712 nM
